EC50 data for 5 molecules are collected here from patent publication US20240270810A1, “PREPARATION AND APPLICATION OF POLYPEPTIDE” (GUANGDONG RAYNOVENT BIOTECH CO., LTD., priority 2021, published 2024).

One test addresses T1, GIPR (Homo sapiens, UniProt P48546).
T1 construct: host or cells: CHO
T1 sequence (P48546 22-466): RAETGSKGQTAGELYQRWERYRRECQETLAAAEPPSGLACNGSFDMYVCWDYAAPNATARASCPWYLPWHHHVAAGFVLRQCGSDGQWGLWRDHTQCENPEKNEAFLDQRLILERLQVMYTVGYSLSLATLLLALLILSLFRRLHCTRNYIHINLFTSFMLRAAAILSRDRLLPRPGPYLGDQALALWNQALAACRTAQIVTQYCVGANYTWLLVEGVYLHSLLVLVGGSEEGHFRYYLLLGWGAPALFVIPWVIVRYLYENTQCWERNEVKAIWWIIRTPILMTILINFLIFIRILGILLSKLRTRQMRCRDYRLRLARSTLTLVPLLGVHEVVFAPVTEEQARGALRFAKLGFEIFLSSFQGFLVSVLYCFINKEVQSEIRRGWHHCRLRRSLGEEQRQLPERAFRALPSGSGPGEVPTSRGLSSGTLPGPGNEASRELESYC
Kind of test: In vitro GIPR agonistic activity test (cAMP kit). It is filed as cell-based. Conditions: CHO host cells. How it is done:
The cell lines were constructed by Wuxi […] (Shanghai) Co., Ltd. See details in Table 1 below. […] The test compounds were diluted at a 4-fold dilution factor in 10 points, starting from an initial concentration of 30 μM. The dilution was carried out by Bravo. • 1) 100 nL of compounds were transferred to an OptiPlate-384 plate by Echo. • 2) The OptiPlate-384 plate was centrifuged at 1000 rpm for 5 s. • 1) A GLP-1R/GIPR cell cryovial was placed in warm water at 37° C. for rapid thawing. • 2) The cell suspension was transferred into a 15 mL Transfer centrifugal tube and rinsed with 10 mL of HBSS gently. • 3) The centrifugal tube was centrifuged at 1000 rpm at room temperature for 1 min. • 4) The supernatant was discarded. • 5) The bottom cells were gently dispersed, then gently rinsed with 10 mL of HBSS, the centrifugal tube was centrifuged to settle the cells, and finally the cells were resuspended in an experimental buffer. • 6) Cell density and viability were measured by Vi-cell. • 7) The GLP-1R/GIPR cells were diluted with the experimental buffer to a concentration of 2.0*10^5/mL. • 8) […] of the diluted cell suspension was transferred into the OptiPlate-384 plate. • 9) Incubation was performed at room temperature for 30 min. • 1) 10 μL of 800 nM gradient diluted cAMP standard was added into the empty wells of the OptiPlate-384 plate. • 2) 10 μL of cAMP assay reagent was added. • 3) The OptiPlate-384 plate was covered with TopSeal-A film and incubated at room temperature for 60 min. The TopSeal-A film was removed, and readout was performed on En Vision.

The target of another test is T2, GLP-1R (Homo sapiens, UniProt P43220).
T2 construct: host or cells: HEK293
T2 sequence (P43220 24-463, species assumed): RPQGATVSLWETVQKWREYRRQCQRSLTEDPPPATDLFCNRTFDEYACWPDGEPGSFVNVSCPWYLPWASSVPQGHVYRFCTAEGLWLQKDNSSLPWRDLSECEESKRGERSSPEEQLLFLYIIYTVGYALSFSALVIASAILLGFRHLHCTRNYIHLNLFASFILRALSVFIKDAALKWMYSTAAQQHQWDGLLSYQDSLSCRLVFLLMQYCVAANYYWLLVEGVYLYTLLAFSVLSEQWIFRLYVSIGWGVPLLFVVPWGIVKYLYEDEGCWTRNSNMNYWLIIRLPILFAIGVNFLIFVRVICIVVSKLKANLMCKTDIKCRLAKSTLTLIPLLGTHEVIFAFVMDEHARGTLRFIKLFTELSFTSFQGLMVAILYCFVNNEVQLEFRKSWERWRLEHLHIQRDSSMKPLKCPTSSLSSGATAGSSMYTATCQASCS
Kind of test: In vitro GLP-1R agonistic activity test (cAMP kit). It is filed as cell-based. The settings on record: HEK293 host cells. The procedure: The cell lines were constructed by Wuxi […] (Shanghai) Co., Ltd. See details in Table 1 below. [table] [table] The test compounds were diluted at a 4-fold dilution factor in 10 points, starting from an initial concentration of 30 μM. The dilution was carried out by Bravo. • 1) 100 nL of compounds were transferred to an OptiPlate-384 plate by Echo. • 2) The OptiPlate-384 plate was centrifuged at 1000 rpm for 5 s. • 1) A GLP-1R/GIPR cell cryovial was placed in warm water at 37° C. for rapid thawing. • 2) The cell suspension was transferred into a 15 mL Transfer centrifugal tube and rinsed with 10 mL of HBSS gently. • 3) The centrifugal tube was centrifuged at 1000 rpm at room temperature for 1 min. • 4) The supernatant was discarded. • 5) The bottom cells were gently dispersed, then gently rinsed with 10 mL of HBSS, the centrifugal tube was centrifuged to settle the cells, and finally the cells were resuspended in an experimental buffer. • 6) Cell density and viability were measured by Vi-cell. • 7) The GLP-1R/GIPR cells were diluted with the experimental buffer to a concentration of 2.0*10^5/mL. • 8) […] of the diluted cell suspension was transferred into the OptiPlate-384 plate. • 9) Incubation was performed at room temperature for 30 min. • 1) 10 μL of 800 nM gradient diluted cAMP standard was added into the empty wells of the OptiPlate-384 plate. • 2) 10 μL of cAMP assay reagent was added. • 3) The OptiPlate-384 plate was covered with TopSeal-A film and incubated at room temperature for 60 min. The TopSeal-A film was removed, and readout was performed on En Vision.

As usually defined, the EC50 is the concentration giving half of the maximal effect. Low readings indicate an effect from little substance, high ones a need for much substance. For `CC[C@H](C)[C@H](NC(=O)[C@H](CC(C)C)NC(=O)[C@H](Cc1c[nH]c2ccccc12)NC(=O)[C@@H]1CCCCNC(=O)CN(C(=O)COCCOCCNC(=O)COCCOCCNC(=O)CC[C@H](NC(=O)CCCCCCCCCCCCCCCCCCC(=O)O)C(=O)O)CC(=O)NCCCC[C@H](NC(=O)[C@H](CCC(N)=O)NC(=O)[C@H](C)NC(=O)[C@@H](NC(=O)[C@H](CCCCN)NC(=O)[C@H](CC(=O)O)NC(=O)[C@H](CC(C)C)NC(=O)C(C)(C)NC(=O)[C@@H](NC(=O)[C@H](CO)NC(=O)[C@H](Cc2ccc(O)cc2)NC(=O)[C@H](CC(=O)O)NC(=O)[C@H](CO)NC(=O)[C@@H](NC(=O)[C@H](Cc2ccccc2)NC(=O)[C@@H](NC(=O)CNC(=O)[C@H](CCC(=O)O)NC(=O)C(C)(C)NC(=O)[C@@H](N)Cc2ccc(O)cc2)[C@@H](C)O)[C@@H](C)O)[C@@H](C)CC)[C@@H](C)CC)C(=O)N[C@@H](CCC(=O)O)C(=O)N[C@@H](Cc2ccccc2)C(=O)N[C@@H](C(C)C)C(=O)N1)C(=O)N[C@@H](C)C(=O)NCC(=O)NCC(=O)N1CCC[C@H]1C(=O)N[C@@H](CO)C(=O)N[C@@H](CO)C(=O)NCC(=O)N[C@@H](C)C(=O)N1CCC[C@H]1C(=O)N1CCC[C@H]1C(=O)N1CCC[C@H]1C(=O)N[C@@H](CO)C(N)=O` [WX-002], the EC50 at GIPR (with 1% HSA) came to 12.5 nM; on GIPR (without 1% HSA) it was 0.43 nM; at GLP-1R (with 1% HSA), 31.3 nM; at GLP-1R (without 1% HSA) it was 0.19 nM.
On to `CC[C@H](C)[C@H](NC(=O)[C@H](CC(C)C)NC(=O)[C@H](Cc1c[nH]c2ccccc12)NC(=O)[C@@H]1CCCCNC(=O)CN(C(=O)COCCOCCNC(=O)COCCOCCNC(=O)CC[C@H](NC(=O)CCCCCCCCCCCCCCCCCCC(=O)O)C(=O)O)CC(=O)NCCCC[C@H](NC(=O)[C@H](CCC(N)=O)NC(=O)[C@H](C)NC(=O)[C@@H](NC(=O)[C@H](CCCCN)NC(=O)[C@H](CC(=O)O)NC(=O)[C@H](CC(C)C)NC(=O)C(C)(C)NC(=O)[C@@H](NC(=O)[C@H](CO)NC(=O)[C@H](Cc2ccc(O)cc2)NC(=O)[C@H](CC(=O)O)NC(=O)[C@H](CO)NC(=O)[C@@H](NC(=O)[C@H](Cc2ccccc2)NC(=O)[C@@H](NC(=O)CNC(=O)[C@H](CCC(=O)O)NC(=O)C(C)(C)NC(=O)[C@@H](N)Cc2ccc(O)cc2)[C@@H](C)O)[C@@H](C)O)[C@@H](C)CC)[C@@H](C)CC)C(=O)N[C@@H](C)C(=O)N[C@@H](Cc2ccccc2)C(=O)N[C@@H]([C@@H](C)CC)C(=O)N1)C(=O)N[C@@H](C)C(=O)NCC(=O)NCC(=O)N1CCC[C@H]1C(=O)N[C@@H](CO)C(=O)N[C@@H](CO)C(=O)NCC(=O)N[C@@H](C)C(=O)N1CCC[C@H]1C(=O)N1CCC[C@H]1C(=O)N1CCC[C@H]1C(=O)N[C@@H](CO)C(N)=O` [WX-003], for which the EC50 stood at 1.07 nM on GIPR (without 1% HSA), 14 nM at GLP-1R (with 1% HSA) and 0.54 nM at GLP-1R (without 1% HSA).
As to `CC[C@H](C)[C@H](NC(=O)[C@H](CC(C)C)NC(=O)[C@H](Cc1c[nH]c2ccccc12)NC(=O)[C@@H]1CCCCNC(=O)CN(C(=O)COCCOCCNC(=O)COCCOCCNC(=O)CC[C@H](NC(=O)CCCCCCCCCCCCCCCCCCC(=O)O)C(=O)O)CC(=O)NCCCC[C@H](NC(=O)[C@H](CCC(N)=O)NC(=O)[C@H](C)NC(=O)[C@@H](NC(=O)[C@H](CCCCN)NC(=O)[C@H](CC(=O)O)NC(=O)[C@H](CC(C)C)NC(=O)C(C)(C)NC(=O)[C@@H](NC(=O)[C@H](CO)NC(=O)[C@H](Cc2ccc(O)cc2)NC(=O)[C@H](CC(=O)O)NC(=O)[C@H](CO)NC(=O)[C@@H](NC(=O)[C@H](Cc2ccccc2)NC(=O)[C@@H](NC(=O)CNC(=O)[C@H](CCC(=O)O)NC(=O)C(C)(C)NC(=O)[C@@H](N)Cc2ccc(O)cc2)[C@@H](C)O)[C@@H](C)O)[C@@H](C)CC)[C@@H](C)CC)C(=O)N[C@@H](C)C(=O)N[C@@H](Cc2ccccc2)C(=O)N[C@@H](C(C)C)C(=O)N1)C(=O)N[C@@H](C)C(=O)NCC(=O)NCC(=O)N1CCC[C@H]1C(=O)N[C@@H](CO)C(=O)N[C@@H](CO)C(=O)NCC(=O)N[C@@H](C)C(=O)N1CCC[C@H]1C(=O)N1CCC[C@H]1C(=O)N1CCC[C@H]1C(=O)N[C@@H](CO)C(N)=O` [WX-004], the EC50 on GIPR (with 1% HSA) is 21.4 nM; on GIPR (without 1% HSA), 1.36 nM; on GLP-1R (with 1% HSA), 84.3 nM; on GLP-1R (without 1% HSA), 1.86 nM.
`CC[C@H](C)[C@H](NC(=O)[C@H](CC(C)C)NC(=O)[C@H](Cc1c[nH]c2ccccc12)NC(=O)[C@H](CCC(N)=O)NC(=O)[C@@H](NC(=O)[C@H](Cc1ccccc1)NC(=O)[C@H](C)NC(=O)[C@@H]1CCCCNC(=O)CN(C(=O)COCCOCCNC(=O)COCCOCCNC(=O)CC[C@H](NC(=O)CCCCCCCCCCCCCCCCCCC(=O)O)C(=O)O)CC(=O)NCCCC[C@H](NC(=O)[C@H](CCCCN)NC(=O)[C@H](CC(=O)O)NC(=O)[C@H](CC(C)C)NC(=O)C(C)(C)NC(=O)[C@@H](NC(=O)[C@H](CO)NC(=O)[C@H](Cc2ccc(O)cc2)NC(=O)[C@H](CC(=O)O)NC(=O)[C@H](CO)NC(=O)[C@@H](NC(=O)[C@H](Cc2ccccc2)NC(=O)[C@@H](NC(=O)CNC(=O)[C@H](CCC(=O)O)NC(=O)C(C)(C)NC(=O)[C@@H](N)Cc2ccc(O)cc2)[C@@H](C)O)[C@@H](C)O)[C@@H](C)CC)C(=O)N[C@@H](C)C(=O)N[C@@H](CCC(N)=O)C(=O)N1)C(C)C)C(=O)N[C@@H](C)C(=O)NCC(=O)NCC(=O)N1CCC[C@H]1C(=O)N[C@@H](CO)C(=O)N[C@@H](CO)C(=O)NCC(=O)N[C@@H](C)C(=O)N1CCC[C@H]1C(=O)N1CCC[C@H]1C(=O)N1CCC[C@H]1C(=O)N[C@@H](CO)C(N)=O` [WX-006]: the results for the 50% effective concentration (EC50) on GIPR (without 1% HSA) and on GLP-1R (without 1% HSA) were 0.26 nM and 0.027 nM, respectively.
On to `CC[C@H](C)[C@H](NC(=O)[C@H](CC(C)C)NC(=O)[C@H](Cc1c[nH]c2ccccc12)NC(=O)[C@@H](NC(=O)[C@@H](NC(=O)[C@H](Cc1ccccc1)NC(=O)[C@H](C)NC(=O)[C@@H]1CCCCNC(=O)CN(C(=O)COCCOCCNC(=O)COCCOCCNC(=O)CC[C@H](NC(=O)CCCCCCCCCCCCCCCCCCC(=O)O)C(=O)O)CC(=O)NCCCC[C@H](NC(=O)[C@H](CCCCN)NC(=O)[C@H](CC(=O)O)NC(=O)[C@H](CC(C)C)NC(=O)C(C)(C)NC(=O)[C@@H](NC(=O)[C@H](CO)NC(=O)[C@H](Cc2ccc(O)cc2)NC(=O)[C@H](CC(=O)O)NC(=O)[C@H](CO)NC(=O)[C@@H](NC(=O)[C@H](Cc2ccccc2)NC(=O)[C@@H](NC(=O)CNC(=O)[C@H](CCC(=O)O)NC(=O)C(C)(C)NC(=O)[C@@H](N)Cc2ccc(O)cc2)[C@@H](C)O)[C@@H](C)O)[C@@H](C)CC)C(=O)N[C@@H](C)C(=O)N[C@@H](CCC(N)=O)C(=O)N1)C(C)C)[C@@H](C)CC)C(=O)N[C@@H](C)C(=O)NCC(=O)NCC(=O)N1CCC[C@H]1C(=O)N[C@@H](CO)C(=O)N[C@@H](CO)C(=O)NCC(=O)N[C@@H](C)C(=O)N1CCC[C@H]1C(=O)N1CCC[C@H]1C(=O)N1CCC[C@H]1C(=O)N[C@@H](CO)C(N)=O` [WX-008], for which the 50% effective concentration (EC50) at GIPR (without 1% HSA) came to 2.74 nM; at GLP-1R (without 1% HSA) it was 0.18 nM.
